According to US5670482A, “Neuropeptide Y antagonists” (Glaxo Wellcome Inc., priority 1992, dated 1997):
Positions of bridges follow the written chain, without caps; N, C: chain ends. Non-standard residues stand in square brackets, D forms with d. Residues, ends and D or L forms follow the SMILES beside them. Chains are numbered I, II in the order given. *: point of attachment. Desaminotyrosyl = O=C(CCc1ccc(O)cc1)*; Orn = NCCC[C@H](N)C(=O)O; X1 = Clc1cccc(Cl)c1C*; Aib = CC(C)(N)C(=O)O

Assays:
[1] = molecular target: NPY receptors in rat brain membranes; assay: Radioreceptor binding assay (3H-NPY, rat brain membranes); settings: 37° C.
Method: Rat brain membranes were incubated with ^3 H-NPY up to equilibrium at 37° C. in the presence of several peptides at different concentrations and in a final volume of 1 ml. Non-specific binding was determined by adding 100 nM of cold NPY. At the end of the incubation period the samples were either filtered (GF/C filter), or 0.5 ml of cold incubation buffer was added and the tubes centrifuged at 15,000 g for 10 min. The supernatant was discarded and the pellet or filters resuspended and counted by liquid scintillation. Results were processed using a computer programme that calculated IC50, Kd, Bmax and Hill coefficient by linear regression. IC50 results where available are shown in column (a) of the Table.

[2] = system: Human erythroleukemic (HEL) cells; assay: Intracellular calcium measurements in HEL cells (Fura-2); assay type: cell-based; settings: for HEL CELLS % Fluor (c): agonistic activity: fluorescence induced by 100 nM of the peptide; for IC50: antagonism of 5 nM NPY-induced calcium signal, read-out: HEL CELLS IC50 (d); for HEL CELLS % INHIB (b): inhibition of increase in HEL cell intracellular calcium induced by 5 nM NPY, 100 nM compound
Method: Human erythroleukemic (HEL) cells were loaded with Fura-2 (1 μM for 1 h), washed and then placed in a cuvette (5×10^5 cells in 2.5 ml) and excited simultaneously at 340 and 380 nm in a SLM spectrofluorometer. Fluorescence changes after the addition of NPY and/or peptide analogs were followed by recording emission at 510 nm. Calcium concentrations can be determined through a computer programme by using the ratio of fluorescence 340/380 nm. The agonistic activity of peptide analogs was tested by recording the fluorescence induced upon stimulation of the cells with 100 nM of the peptide and the antagonistic activity by observing the decrease in fluorescence induced by 5 nM NPY in the presence of the analog The results where available are indicated in column (c) of the Table.
The inhibition of the increase in the HEL cell intracellular calcium (induced by 5 nM NPY) achieved by 100 nM concentrations of each compound is shown in column (b) of the Table.

| Compound | IC50 [1] [nM] | HEL CELLS % Fluor (c) [2] [%] | IC50 [2] [nM] | HEL CELLS % INHIB (b) [2] [%] |
| --- | --- | --- | --- | --- |
| IleCysProCysTyrArgLeuArgTyr-NH2,Cyclic(2,2'), (4,4')-Disulfide Dimer and IleCysProCysTyrArgLeuArgTyr-NH2,Cyclic(2,4'),(4,2')-Disulfide Dimer [Example 6] | 250 | 0 | 2 | 100 |
| CC[C@H](C)[C@H](N)C(=O)N[C@H]1CC(=O)NCCC[C@@H](C(=O)N[C@@H](Cc2ccc(O)cc2)C(=O)N[C@@H](CCCNC(=N)N)C(=O)N[C@@H](CC(C)C)C(=O)N[C@@H](CCCNC(=N)N)C(=O)N[C@@H](Cc2ccc(O)cc2)C(N)=O)NC(=O)[C@@H]2CCCN2C(=O)[C@@H](NC(=O)[C@@H](N)[C@@H](C)CC)CC(=O)NCCC[C@@H](C(=O)N[C@@H](Cc2ccc(O)cc2)C(=O)N[C@@H](CCCNC(=N)N)C(=O)N[C@@H](CC(C)C)C(=O)N[C@@H](CCCNC(=N)N)C(=O)N[C@@H](Cc2ccc(O)cc2)C(N)=O)NC(=O)[C@@H]2CCCN2C1=O [Example 16, IleAspProOrnTyrArgLeuArgTyrNH2,Cyclic(2,4'),(2',4)-Diamide] (I: H-IDP[Orn]YRLRY-NH2 / II: H-IDP[Orn]YRLRY-NH2; amide I:2-II:4, I:4-II:2; N-terminus assumed) | < 0.1 | 0 | 0.25 | 100 |
| CC[C@H](C)[C@H](N)C(=O)N[C@@H](CC(N)=O)C(=O)N1CCC[C@H]1C(=O)N[C@H](C(=O)N[C@@H](Cc1ccc(O)cc1)C(=O)N[C@@H](CCCNC(=N)N)C(=O)N[C@@H](CC(C)C)C(=O)N[C@@H](CCCNC(=N)N)C(=O)N[C@@H](Cc1ccc(O)cc1)C(N)=O)[C@@H](C)OC [Example 2, IleAsnPro(O-MethylThr)TyrArgLeuArgTyr-NH2] (H-INPT(Me)YRLRY-NH2) | 280 | 0 | 5 | 100 |
| CC[C@H](C)[C@H](N)C(=O)N[C@H]1CCC(=O)NCCC[C@@H](C(=O)N[C@@H](Cc2ccc(O)cc2)C(=O)N[C@@H](CCCNC(=N)N)C(=O)N[C@@H](CC(C)C)C(=O)N[C@@H](CCCNC(=N)N)C(=O)N[C@@H](Cc2ccc(O)cc2)C(N)=O)NC(=O)[C@@H]2CCCN2C(=O)[C@@H](NC(=O)[C@@H](N)[C@@H](C)CC)CCC(=O)NCCC[C@@H](C(=O)N[C@@H](Cc2ccc(O)cc2)C(=O)N[C@@H](CCCNC(=N)N)C(=O)N[C@@H](CC(C)C)C(=O)N[C@@H](CCCNC(=N)N)C(=O)N[C@@H](Cc2ccc(O)cc2)C(N)=O)NC(=O)[C@@H]2CCCN2C1=O [Example 15, IleGluProOrnTyrArgLeuArgTyr-NH2,Cyclic(2,4'),(2',4)-Diamide] (I: H-IEP[Orn]YRLRY-NH2 / II: H-IEP[Orn]YRLRY-NH2; amide I:2-II:4, I:4-II:2; N-terminus assumed) | < 0.1 | 0 | 0.25 | 100 |
| CC[C@H](C)[C@H](NC(=O)CCc1ccc(O)cc1)C(=O)N[C@@H](CC(N)=O)C(=O)N[C@@H](CC(C)C)C(=O)N[C@H](C(=O)N[C@@H](Cc1ccc(O)cc1)C(=O)N[C@@H](CCCNC(=N)N)C(=O)N[C@@H](CC(C)C)C(=O)N[C@@H](CCCNC(=N)N)C(=O)N[C@@H](Cc1ccc(O)cc1)C(N)=O)[C@@H](C)CC [Example 18, desNH2 TyrIleAsnLeuIleTyrArgLeuArgTyr-NH2] (Desaminotyrosyl-INLIYRLRY-NH2) | 17 | 28 | – | 62 |
| CC[C@H](C)[C@H](N)C(=O)N[C@@H](CC(N)=O)C(=O)N1CCC[C@H]1C(=O)NC(C)(C)C(=O)N[C@@H](Cc1ccc(OCc2c(Cl)cccc2Cl)cc1)C(=O)N[C@@H](CCCNC(=N)N)C(=O)N[C@@H](CC(C)C)C(=O)N[C@@H](CCCNC(=N)N)C(=O)N[C@@H](Cc1ccc(O)cc1)C(N)=O [Example 3, IleAsnProAib[O-(2,6-Dichlorobenzyl)Tyr]ArgLeuArgTyr-NH2] (H-INP[Aib]Y(X1)RLRY-NH2; N-terminus assumed) | 350 | 0 | 8 | 100 |
